{"source": "patent US11208397B2", "about": "“Small molecule antagonists of sumo related modification of CRMP2 and uses thereof” (Arizona Board of Regents on Behalf of the University of …, priority 2017, dated 2021)", "key": {"hERG": {"target": "hERG (Homo sapiens, UniProt Q12809)", "details": "20 μM, hEK293 cells; listed as ReN 194"}, "NaV1.7": {"tested_on": "NaV1.7", "assay_type": "cell-based, rat"}, "CRMP2": {"target": "CRMP2 (Mus musculus, UniProt O08553)", "assay": "1D 1H STD NMR binding to CRMP2", "method": "1D ^1H STD NMR showing on-resonance spectrum for CRMP2 with probe AZ194. Asterisks correspond to protons. […] NMR was performed on an AVANCE III 400 Mhz specrometer equipped with a Bruker PABBO 400S1 probe and SampleJet carousel that can hold up to 96 NMR tubes. The on-resonance excitation was set at 0.81 ppm (to irradiate protein methyl groups) and off-resonance set to 30 ppm. A 15 ms spin-lock was used to suppress the protein signal, followed by the double PFG spin echo to remove residual water signal. Spectra processing and analysis were performed with Topspin3.1 and MestReNova 7.1."}, "Ubc9": {"target": "Ubc9 (Homo sapiens, UniProt P63279)", "sequence (P63279 whole entry, species assumed)": "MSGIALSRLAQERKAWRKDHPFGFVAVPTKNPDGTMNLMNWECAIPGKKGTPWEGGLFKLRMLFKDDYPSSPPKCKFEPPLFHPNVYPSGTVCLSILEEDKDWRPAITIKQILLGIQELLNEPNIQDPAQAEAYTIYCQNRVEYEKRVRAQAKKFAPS", "assay": "1D 1H STD NMR binding to Ubc9"}, "[1]": {"tested_on": "spared nerve injury (SNI) rats", "assay": "Spared nerve injury (SNI) model of neuropathic pain", "assay_type": "in vivo, rat", "method": "FIG. 4: AZ194 reduces spared nerve injury (SNI) induced nociceptive behaviors. Rats received spared nerve injury (SNI) on the left hind paw. […] Right panel: Area under the curve (AUC), using the trapezoid method, for PWT (summary for data shown in the time course on the left) are shown. *p<0.05, one-way analysis of variance with Dunnett's post hoc analysis. Error bars represent mean±s.e.m.\nAZ194 was evaluated for efficacy in the spared nerve injury (SNI) model (see, e.g., Decosterd I, & Woolf C J (2000) Pain 87: 149-158) of neuropathic pain. […] Such experiments also determined the AUC to assess effects over the full experimental duration.\nUnder isoflurane anesthesia (5% induction, 2.5% maintenance in 2 L/min air), skin on the lateral surface of the left hind thigh was incised. The biceps femoris muscle was bluntly dissected to expose the three terminal branches of the sciatic nerve (see, e.g., Decosterd I, & Woolf C J (2000) Pain 87: 149-158). Briefly, the common peroneal and tibial branches were tightly ligated with 4-0 silk and axotomized 2.0 mm distal to the ligation. Sham animals underwent the same operation; however the nerves were exposed and not ligated. Closure of the incision was made in two layers. The muscle was sutured once with 5-0 absorbable suture and skin was auto-clipped. Animals were allowed to recover for 5-7 days before any testing."}, "CaV2.2": {"target": "T1, CaV2.2 (Rattus norvegicus, UniProt Q02294)", "T1 construct": "endogenous in cells; host or cells: DRG neurons", "T1 sequence (Q02294 whole entry)": "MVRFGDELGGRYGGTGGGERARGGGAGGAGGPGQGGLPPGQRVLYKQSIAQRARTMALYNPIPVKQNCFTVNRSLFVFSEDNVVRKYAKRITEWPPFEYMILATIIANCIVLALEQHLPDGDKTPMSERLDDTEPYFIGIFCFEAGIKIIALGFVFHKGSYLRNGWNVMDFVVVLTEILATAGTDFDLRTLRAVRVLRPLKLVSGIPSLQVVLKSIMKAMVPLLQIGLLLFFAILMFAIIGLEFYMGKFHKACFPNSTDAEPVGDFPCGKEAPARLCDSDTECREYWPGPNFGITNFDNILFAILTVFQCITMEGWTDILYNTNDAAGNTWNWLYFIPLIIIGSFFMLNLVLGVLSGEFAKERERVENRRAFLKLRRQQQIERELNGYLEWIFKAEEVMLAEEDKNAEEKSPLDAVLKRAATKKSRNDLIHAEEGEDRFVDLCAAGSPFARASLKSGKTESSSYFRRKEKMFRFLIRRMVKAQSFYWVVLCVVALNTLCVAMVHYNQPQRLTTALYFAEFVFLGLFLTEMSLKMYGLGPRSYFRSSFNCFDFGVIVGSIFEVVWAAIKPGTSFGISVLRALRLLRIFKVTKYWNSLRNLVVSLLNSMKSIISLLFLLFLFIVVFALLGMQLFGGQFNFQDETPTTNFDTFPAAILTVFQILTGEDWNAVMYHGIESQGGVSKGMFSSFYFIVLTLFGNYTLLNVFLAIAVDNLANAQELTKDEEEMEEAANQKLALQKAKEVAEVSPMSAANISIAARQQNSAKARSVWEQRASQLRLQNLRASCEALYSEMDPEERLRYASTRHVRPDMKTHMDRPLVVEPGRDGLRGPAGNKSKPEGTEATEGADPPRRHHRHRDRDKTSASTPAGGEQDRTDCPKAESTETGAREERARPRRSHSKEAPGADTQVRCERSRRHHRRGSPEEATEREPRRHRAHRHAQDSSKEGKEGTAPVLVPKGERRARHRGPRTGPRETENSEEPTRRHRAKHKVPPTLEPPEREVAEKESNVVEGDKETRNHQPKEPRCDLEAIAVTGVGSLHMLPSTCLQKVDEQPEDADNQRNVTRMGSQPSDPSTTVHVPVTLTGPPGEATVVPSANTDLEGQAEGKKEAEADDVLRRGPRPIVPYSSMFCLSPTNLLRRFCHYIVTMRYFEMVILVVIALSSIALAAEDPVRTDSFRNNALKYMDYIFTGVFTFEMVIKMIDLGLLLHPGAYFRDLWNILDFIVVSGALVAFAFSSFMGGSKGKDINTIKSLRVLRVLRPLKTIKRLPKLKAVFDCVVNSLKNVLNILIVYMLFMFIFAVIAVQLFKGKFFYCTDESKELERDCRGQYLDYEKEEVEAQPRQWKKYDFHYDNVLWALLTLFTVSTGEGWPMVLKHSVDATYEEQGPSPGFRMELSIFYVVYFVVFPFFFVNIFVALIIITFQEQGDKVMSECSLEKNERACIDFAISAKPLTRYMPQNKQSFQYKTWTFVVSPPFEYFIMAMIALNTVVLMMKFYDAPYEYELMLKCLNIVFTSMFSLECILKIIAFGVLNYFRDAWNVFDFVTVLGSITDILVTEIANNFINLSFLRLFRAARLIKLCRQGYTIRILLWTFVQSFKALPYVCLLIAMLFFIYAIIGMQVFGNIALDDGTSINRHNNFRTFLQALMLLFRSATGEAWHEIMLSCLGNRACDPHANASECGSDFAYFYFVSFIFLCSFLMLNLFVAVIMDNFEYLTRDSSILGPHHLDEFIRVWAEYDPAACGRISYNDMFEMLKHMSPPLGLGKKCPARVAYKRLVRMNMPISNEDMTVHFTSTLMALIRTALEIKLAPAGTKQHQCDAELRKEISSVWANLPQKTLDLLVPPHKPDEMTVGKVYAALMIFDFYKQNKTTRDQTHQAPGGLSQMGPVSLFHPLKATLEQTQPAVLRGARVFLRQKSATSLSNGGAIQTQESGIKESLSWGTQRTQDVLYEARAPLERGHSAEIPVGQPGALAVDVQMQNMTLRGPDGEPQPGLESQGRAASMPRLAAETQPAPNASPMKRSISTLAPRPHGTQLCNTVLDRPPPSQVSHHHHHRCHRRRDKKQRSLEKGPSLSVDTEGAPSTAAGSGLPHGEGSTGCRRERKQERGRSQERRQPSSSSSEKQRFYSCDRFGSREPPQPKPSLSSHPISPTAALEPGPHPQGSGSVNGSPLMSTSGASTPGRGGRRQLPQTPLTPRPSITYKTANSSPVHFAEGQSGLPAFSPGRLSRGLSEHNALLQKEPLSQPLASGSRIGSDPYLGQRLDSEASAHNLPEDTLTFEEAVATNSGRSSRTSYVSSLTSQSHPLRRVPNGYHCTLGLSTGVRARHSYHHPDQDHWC", "T1 sequence (P54287 whole entry partner)": "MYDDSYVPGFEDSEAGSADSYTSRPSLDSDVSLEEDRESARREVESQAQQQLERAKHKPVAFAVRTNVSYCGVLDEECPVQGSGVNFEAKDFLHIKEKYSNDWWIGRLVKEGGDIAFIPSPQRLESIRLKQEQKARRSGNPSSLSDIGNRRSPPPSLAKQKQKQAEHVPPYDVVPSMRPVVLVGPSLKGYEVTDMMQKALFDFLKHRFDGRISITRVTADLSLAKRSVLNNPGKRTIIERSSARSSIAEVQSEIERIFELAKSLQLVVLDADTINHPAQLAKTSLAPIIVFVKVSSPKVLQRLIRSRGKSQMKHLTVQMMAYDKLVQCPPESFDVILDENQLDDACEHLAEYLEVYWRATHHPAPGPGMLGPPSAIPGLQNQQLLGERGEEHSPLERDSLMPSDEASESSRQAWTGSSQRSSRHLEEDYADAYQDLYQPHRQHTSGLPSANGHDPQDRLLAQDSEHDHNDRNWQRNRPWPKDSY", "T1 sequence (P54290 25-1091 partner)": "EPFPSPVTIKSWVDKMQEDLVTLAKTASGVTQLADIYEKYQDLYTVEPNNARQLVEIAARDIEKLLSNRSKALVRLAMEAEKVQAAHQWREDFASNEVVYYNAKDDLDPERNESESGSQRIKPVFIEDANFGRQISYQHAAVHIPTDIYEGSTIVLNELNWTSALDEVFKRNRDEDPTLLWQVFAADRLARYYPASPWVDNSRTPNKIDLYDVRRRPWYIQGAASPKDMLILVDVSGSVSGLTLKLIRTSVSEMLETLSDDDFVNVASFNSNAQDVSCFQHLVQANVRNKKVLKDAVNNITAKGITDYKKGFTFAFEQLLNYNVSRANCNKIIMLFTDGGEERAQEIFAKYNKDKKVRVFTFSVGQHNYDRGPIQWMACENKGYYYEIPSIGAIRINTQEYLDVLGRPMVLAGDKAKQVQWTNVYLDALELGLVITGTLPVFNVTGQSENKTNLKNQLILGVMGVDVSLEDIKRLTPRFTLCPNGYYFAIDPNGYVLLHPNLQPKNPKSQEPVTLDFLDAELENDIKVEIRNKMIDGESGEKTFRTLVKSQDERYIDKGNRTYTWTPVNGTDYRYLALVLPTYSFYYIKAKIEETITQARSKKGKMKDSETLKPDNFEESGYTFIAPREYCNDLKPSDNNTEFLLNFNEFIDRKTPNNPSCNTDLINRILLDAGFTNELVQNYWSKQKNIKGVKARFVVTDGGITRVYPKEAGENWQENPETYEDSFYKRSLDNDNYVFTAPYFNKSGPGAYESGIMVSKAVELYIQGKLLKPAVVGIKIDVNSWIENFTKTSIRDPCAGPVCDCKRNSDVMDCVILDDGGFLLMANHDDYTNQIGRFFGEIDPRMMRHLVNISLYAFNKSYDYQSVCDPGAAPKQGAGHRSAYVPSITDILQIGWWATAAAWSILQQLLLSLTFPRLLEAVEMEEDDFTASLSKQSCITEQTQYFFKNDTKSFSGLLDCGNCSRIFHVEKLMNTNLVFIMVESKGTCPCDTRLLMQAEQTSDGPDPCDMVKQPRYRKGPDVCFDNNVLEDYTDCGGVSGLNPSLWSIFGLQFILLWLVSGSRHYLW", "assay": "Peak CaV2.2 currents in DRGs", "assay_type": "cell-based", "details": "20 μM"}, "Penk mRNA": {"tested_on": "Penk mRNA", "assay": "Penk (proenkephalin) mRNA expression in cultured DRG neurons", "assay_type": "cell-based", "details": "exposure 6 hr, cultured rat DRG neurons"}, "other NaV1.x channels": {"tested_on": "other NaV1.x channels", "assay": "Whole-cell patch clamp, other NaV1.x channels", "assay_type": "cell-based"}, "TTX-S NaV1.7 currents": {"tested_on": "TTX-S NaV1.7 currents", "assay_type": "cell-based, human"}, "NaV1.7 channels": {"tested_on": "NaV1.7 channels", "assay": "Sodium currents of sensory neurons incubated with compound for indicated times (direct block test)", "assay_type": "cell-based", "set-up": "dose or concentration left out as unconfirmed", "details": "primary rat sensory neurons", "method": "Primary rat sensory neurons were incubated for the indicated times with DMSO 0.1% or […] AZ194. Left: Bar graphs represent normalized peak sodium current density±s.e.m. from at least 14 cells per condition from 3 separate rats.*p<0.05, Kruskal-Wallis test. Middle: current voltage relationship of sodium currents from rat sensory neurons incubated for the indicated times with DMSO 0.1% or […] AZ194. Right: biophysical properties of inactivation were not altered by AZ194 at any of the time points versus control.\nPrimary rat sensory neurons were incubated for the indicated times with DMSO 0.1% or 5 mM AZ194."}, "NaV channels": {"tested_on": "NaV channels", "assay": "Frequency (use)-dependent block of sodium current in DRG neurons", "assay_type": "cell-based", "details": "5 μM, thirty test pulses at 10 Hz, listed as ReN 206", "method": "Control DRG neurons were treated with 0.03% DMSO (squares). Thirty, identical test pulses were applied at 10 Hz. The difference in available current was calculated by dividing the peak current at any given pulse (pulseN) by the peak current in response to the initial pulse (pulsei). Data are from 5-6 cells per condition.\nThe ability to block Na^+ currents in an activity- or use-dependent manner is a useful property for drugs since it allows for preferential decreases in sodium channel availability during high—(i.e., hyperexcitable ‘pain’ neurons) but not low-frequency firing."}}, "note": "“Also recorded” adds a separate entry of the source. Where two headings read alike, the source gives them in different places."}
{"compound": "COc1cc(C(=O)N2CCC(c3nc4ccccc4n3Cc3cccc(F)c3)CC2)ccc1OCc1cccc(F)c1", "note": "[AZ194, (4-(1-(3-fluorobenzyl)-1H-benzo[d]imidazol-2-yl)piperidin-1-yl)(4-((3-fluorobenzyl)oxy)-3-methoxyphenyl)methanone]", "values": [{"measurement": "effect on hERG K+ currents", "setting": "hERG", "value": "did not affect"}, {"measurement": "inhibition of NaV1.7 (concentration-response curve)", "setting": "NaV1.7", "value": "nanomolar potency"}, {"measurement": "binding to CRMP2 (STD NMR)", "setting": "CRMP2", "value": "binds"}, {"measurement": "binding to Ubc9 (STD NMR)", "setting": "Ubc9", "value": "No binding was observed"}, {"measurement": "paw withdrawal thresholds (PWTs)", "setting": "[1]; intrathecal injection 0.5 μg/5 μl", "value": "significantly increased; also recorded: significantly reversed"}, {"measurement": "area under the curve (AUC) for PWT", "setting": "[1]; spinal administration, full experimental duration", "value": "reversal of mechanical allodynia"}, {"measurement": "effect on peak CaV2.2 currents", "setting": "CaV2.2", "value": "no inhibition"}, {"measurement": "effect on peak CaV2.2 currents", "setting": "CaV2.2; listed as ReN 194", "value": "did not affect"}, {"measurement": "Penk mRNA (proenkephalin), normalized to L27 ribosomal RNA", "setting": "Penk mRNA", "value": "upregulates; also recorded: increased"}, {"measurement": "effect on other NaV1.x channels", "setting": "other NaV1.x channels", "value": "not affected"}, {"measurement": "effect on other NaV1.x channels", "setting": "other NaV1.x channels; highest concentration of 20 μM", "value": "no inhibition"}, {"measurement": "reduction of TTX-S NaV1.7 currents", "setting": "TTX-S NaV1.7 currents", "value": "~66", "unit": "%"}, {"measurement": "biophysical properties of inactivation", "setting": "NaV1.7 channels; any time point versus control", "value": "not altered"}, {"measurement": "direct block of NaV1.7 channels (normalized peak sodium current density)", "setting": "NaV1.7 channels; indicated incubation times", "value": "does not directly block"}]}
{"compound": "Fc1ccc(Oc2ccc(CN3CCC(c4nc5ccccc5[nH]4)CC3)cc2)cc1", "note": "[AZ206, 2-(1-(4-(4-fluorophenoxy)benzyl)piperidin-4-yl)-1H-benzo[d]imidazole]", "values": [{"measurement": "frequency (use)-dependent decrease in current amplitude", "setting": "NaV channels", "value": "use-dependent inhibitor; also recorded: decrease in current amplitude"}]}
{"compound": "COc1cc(C(=O)N2CCC(c3nc4ccccc4n3Cc3cccc(F)c3)CC2)ccc1OCc1cccc(F)c1", "note": "[drawing 20]", "values": [{"measurement": "Penk mRNA (proenkephalin), normalized to L27 ribosomal RNA", "setting": "Penk mRNA", "value": "upregulation"}]}
